Experiments:
Assay type in all cases: cell-based
[1] = tested on: yeast Saccharomyces cerevisiae X2180-1B; assay: Growth of yeast in matrix of tubes of Ready to Drink tea (0.14% tea) with preservatives and essential oil component, OD 600 nm at 14 days; details: RTD tea pH 3.4, cinnamic acid 1-175 ppm, 14 days 25° C.; for tubes supporting yeast growth compared with control without essential oil (FIG. 13): benzoic acid 1-250 ppm; for tubes supporting yeast growth compared with control without essential oil (FIG. 1): sorbic acid 1-250 ppm; for tubes supporting yeast growth compared with control without essential oil (FIG. 19): sorbic acid+benzoic acid 1:1 1-250 ppm
Protocol: (§1) The matrix of 30 ml tubes each contained 10 ml RTD tea, pH 3.4. […] Tubes were inoculated with 10^4 cells of the yeast Saccharomyces cerevisiae X2180-1B. Tubes were then incubated for 14 days at 25° C. to allow surviving yeasts to grow out. At 14 days growth was measured by optical density at 600 nm in x11 diluted samples, and blank values subtracted.
as §1, with “containing” for “contained”, “tea” for “tea,”, “3.4, all contained 100 ppm citral dimethyl acetal.” for “3.4.”, “were” for “were then”
as §1, with “containing” for “contained”, “tea” for “tea,”, “3.4, all contained 100 ppm cumic alcohol.” for “3.4.”, “were” for “were then”
as §1, with “containing” for “contained”, “tea” for “tea,”, “3.4, all contained 100 ppm citral.” for “3.4.”, “were” for “were then”
as §1, with “containing” for “contained”, “tea” for “tea,”, “3.4, all contained 50 ppm 3,7-dimethyl octanol.” for “3.4.”, “were” for “were then”
as §1, with “containing” for “contained”, “tea” for “tea,”, “3.4, all contained 100 ppm myrtenol.” for “3.4.”, “were” for “were then”
as §1, with “containing” for “contained”, “tea” for “tea,”, “3.4, all contained 100 ppm piperonyl acetate.” for “3.4.”, “were” for “were then”
as §1, with “containing” for “contained”, “tea” for “tea,”, “3.4, all contained 15 ppm trans, trans-2,4-decadienal.” for “3.4.”, “were” for “were then”
as §1, with “containing” for “contained”, “tea” for “tea,”, “3.4, all contained 100 ppm δ-decanolactone.” for “3.4.”, “were” for “were then”
as §1, with “containing” for “contained”, “tea” for “tea,”, “3.4, all contained 25 ppm citral dimethyl acetal and 35 ppm cumic alcohol.” for “3.4.”, “were” for “were then”
The matrix of 30 ml tubes each contained 10 ml RTD tea, pH 3.4. […]

[2] = tested on: spoilage mould Aspergillus niger POL10; assay: Growth of spoilage mould in RTD tea with preservatives and increasing citral dimethyl acetal, visual at 28 days; details: RTD tea pH 3.1, 0.14% tea; sorbic acid 200 ppm, cinnamic acid 60 ppm, EDTA 30 ppm; 10^4 conidiaspores; 28 days 25° C.; tested 1-400 ppm
Protocol: Growth of spoilage mould Aspergillus niger POL10 in 30 ml tubes each contained 10 ml RTD tea, pH 3.1, 0.14% tea. All tubes containing sorbic acid 200 ppm, cinnamic acid 60 ppm, EDTA 30 ppm. An essential oil component, citral dimethyl acetal, was added in increasing concentration to tubes, in the range 1-400 ppm. Tubes were inoculated with 10^4 conidiaspores of the mould Aspergillus niger POL10. Tubes were then incubated for 28 days at 25° C. to allow moulds to grow out. At 28 days growth was measured visually. Mould growth was visible in all tubes, excepting those containing >80 ppm citral dimethyl acetal.

[3] = tested on: yeast Saccharomyces cerevisiae X2180-1B; assay: Growth of yeast in matrix of tubes of synthetic soft drink (0% tea) with preservatives and essential oil component, OD 600 nm at 14 days; details: synthetic soft drink pH 3.4, 100 ppm essential oil component, cinnamic acid 1-175 ppm, 14 days 25° C.
Protocol: (§2) Synthetic soft drink contained glucose, 8%w/v, citric acid 3 g/l, potassium orthophosphate 1 g/l, magnesium chloride 0.1 g/l and yeast extract 0.1 g/l. The matrix of 30 ml tubes each contained 10 ml synthetic soft drink, pH 3.4. Sorbic acid was used in the range 1-250 ppm and cinnamic acid in the range 1-175 ppm. Tubes were inoculated with 10^4 cells of the yeast Saccharomyces cerevisiae X2180-1B. Tubes were then incubated for 14 days at 25° C. to allow surviving yeasts to grow out. At 14 days growth was measured by optical density at 600 nm in x11 diluted samples, and blank values subtracted.
as §2, with “each containing” for “each contained”, “soft drink” for “soft drink,”, “pH 3.4, all contained 100 ppm citral dimethyl acetal.” for “pH 3.4.”, “were” for “were then”
Synthetic soft drink contained glucose, 8%w/v, citric acid 3 g/l, potassium orthophosphate 1 g/l, magnesium chloride 0.1 g/l and yeast extract 0.1 g/l. The matrix of 30 ml tubes each contained 10 ml synthetic soft drink, pH 3.4. […] At 14 days growth was measured by optical density at 600 nm in x11 diluted samples, and blank values subtracted.
Synthetic soft drink contained glucose, 8%w/v, citric acid 3 g/l, potassium orthophosphate 1 g/l, magnesium chloride 0.1 g/l and yeast extract 0.1 g/l. […] At 14 days growth was measured by optical density at 600 nm in x11 diluted samples, and blank values subtracted.
Synthetic soft drink contained glucose, 8%w/v, citric acid 3 g/l, potassium orthophosphate 1 g/l, magnesium chloride 0.1 g/l and yeast extract 0.1 g/l. […] At 14 days growth was measured by optical density at 600 nm in x11 diluted samples, and blank values subtracted. […]

fungi = details: Table I, preferred essential oils
[4] = 100 ppm essential oil component

With `CC(C)CCCC(C)CCO` (stereo not shown) [3,7-Dimethyl-1-octanol] the “tubes supporting yeast growth compared with control without essential oil (FIG. 13)” value ([1]; 50 ppm essential oil component) was “very substantially fewer tubes supporting yeast growth”, the “tubes supporting yeast growth compared with control without essential oil (FIG. 1)” value ([1]; 50 ppm essential oil component) was “very substantially fewer tubes supporting yeast growth” and the “tubes supporting yeast growth compared with control without essential oil (FIG. 19)” value ([1]; 50 ppm essential oil component) was “very substantially fewer tubes supporting yeast growth”.
`COC(C=C(C)CCC=C(C)C)OC` [Citral dimethyl acetal] was tested, and the “concentration at which no mould growth was visible” value [2] was > 80 ppm, the “tubes supporting yeast growth compared with control without essential oil (FIG. 17)” value ([3]; benzoic acid 1-250 ppm) was “very substantially fewer tubes supporting yeast growth” and the “tubes supporting yeast growth compared with control without essential oil (FIG. 11)” value ([3]; sorbic acid 1-250 ppm) was “very substantially fewer tubes supporting yeast growth”. The “tubes supporting yeast growth compared with control without essential oil (FIG. 23)” value ([3]; sorbic acid+benzoic acid 1:1 1-250 ppm) was “very substantially fewer tubes supporting yeast growth”, the “tubes supporting yeast growth compared with control without essential oil (FIG. 13)” value [1, 4] was “very substantially fewer tubes supporting yeast growth” and the “tubes supporting yeast growth compared with control without essential oil (FIG. 1)” value [1, 4] was “very substantially fewer tubes supporting yeast growth”. The “tubes supporting yeast growth compared with control without essential oil (FIG. 19)” value [1, 4] was “very substantially fewer tubes supporting yeast growth”.
With `CC(C)=CCCC(C)=CC=O` [Citral] the “tubes supporting yeast growth compared with control without essential oil (FIG. 1)” value [1, 4] was “very substantially fewer tubes supporting yeast growth”.
For `CC(C)c1ccc(CO)cc1` [Cumic alcohol], the “tubes supporting yeast growth compared with control without essential oil (FIG. 1)” value [1, 4] was “very substantially fewer tubes supporting yeast growth”.
`CC1(C)C2CC=C(CO)C1C2` (stereo not shown) [Myrtenol] was tested, and the “tubes supporting yeast growth compared with control without essential oil (FIG. 1)” value [1, 4] was “very substantially fewer tubes supporting yeast growth”.
In the case of `CCCCCCCC(=O)O` [Octanoic acid (caprylic)], the “MIC (ppm)” value (fungi) is reported as 115 ppm.
For `CC(=O)OCc1ccc2c(c1)OCO2` [Piperonyl acetate], the “tubes supporting yeast growth compared with control without essential oil (FIG. 1)” value [1, 4] was “very substantially fewer tubes supporting yeast growth”.
`CCCCC/C=C/C=C/C=O` [trans,trans-2,4-Decadienal] was tested, and the “tubes supporting yeast growth compared with control without essential oil (FIG. 1)” value ([1]; 15 ppm essential oil component) was “very substantially fewer tubes supporting yeast growth”.

— patent US6761919B2, “Ambient stable beverage” (priority 2000, dated 2004)
